pIC50: −log10 of the molar value.
Tests used:
[1] = target: T1, Phospho-DNA-PK in FaDu Cells (Homo sapiens, UniProt P78527); experiment: Effect of compounds on phospho-DNA-PK in FaDu cells (MesoScale sandwich immunoassay); assay type: cell-based; conditions: 1 hour pre-incubation, 1 μg/ml Neocarzinostatin 2 hours, averaged values, read-out: MSD FaDu IC50
T1 construct: host or cells: FaDu
Experimental: Effect of Compounds on Phospho-DNA-PK in FaDu Cells
All compounds tested were dissolved in DMSO and further dilutions were made in culture medium. Final DMSO concentration was 0.3% (v/v). The human FaDu cells (ATCC) were cultured in MEM medium supplemented with Glutamax and 10% fetal calf serum (PAA). Cells were routinely maintained at densities of 0.2×10^6 cells per ml at 37° C. in a humidified 5% CO2, 95% air atmosphere. Cells were passaged twice a week, splitting back to obtain the low density. Cells were seeded in 96 well plates (Corning 3904) at 1×10^6 cells per ml media in a volume of 50 μl per well. Seeded cells were incubated at 37° C. in a humidified 5% CO2, 95% air atmosphere for 24 hours. Compounds were added (25 μl) to the cells and pre-incubated for 1 hour. 1 μg/ml DNA-damaging agent Neocarzinostatin (NCS) was added (25 μl) to a final volume of 100 μl and incubated for 2 hours at 37° C. in a humidified 5% CO2, 95% air atmosphere. After this period of time plates were removed from the incubator and the 100 μl dilutions were removed from the wells gently, prior to the addition of 75 μl cold RIPA lysis buffer with protease and phosphatase inhibitors to achieve the cells lysis, followed by shaking on a plate shaker at 4° C. for 30 minutes. At the end of this incubation, lysate was assessed for phospho-DNA-PK levels by sandwich immune-assay carried out in anti-mouse antibody coated MesoScale plates. […] Signal obtained in the wells containing blank samples was subtracted from all other wells and IC50 values were determined by fitting a sigmoidal curve to % inhibition of control versus Logo compound concentration.

[2] = target: DNA-PK kinase (Homo sapiens, UniProt P78527); experiment: Inhibition of DNA-PK kinase activity (ADP-Glo); assay type: biochemical; conditions: averaged values over all measurements on all batches; 150 μM ATP, 1 hour at 25° C.
Experimental: Inhibition of DNA-PK Kinase Activity Assay buffer was 50 mM Hepes pH 7.5 containing 0.1 mg/ml BSA (albumin from bovine serum), 50 μM DTT (dithiothreitol), 20 mM MgCl2 and 10 μg/ml calf thymus DNA (activation buffer). Kinase reaction was carried out in OptiPlate 384 plates (PerkinElmer 6007299). All compounds tested were dissolved in dimethyl sulfoxide (DMSO) and further dilutions were made in assay buffer. Final DMSO concentration was 1% (v/v). Pre-incubation consisted of compound (1% DMSO in control and blank wells) and 24 ng/well DNA-PK kinase to allow the compounds to bind the enzyme (with buffer in the blank wells) for 15 minutes; after this time 150 μM Adenosine-5′-triphosphate (ATP) and 0.2 μg/μl DNA-PK substrate were added to commence the kinase reaction. Incubations were carried out for 1 hour at 25° C. Kinase activity was determined by using ADP-Glo™ reagent from Promega according to the manufacturer's instructions. The light generated was measured using a luminometer (EnVision, PerkinElmer). Signal obtained in the wells containing blank samples was subtracted from all other wells and IC50 values were determined by fitting a sigmoidal curve to % inhibition of control versus Log10 compound concentration.

| SMILES | pIC50 [1] | pIC50 [2] |
| --- | --- | --- |
| c1cnc(NC2CC3(CCN(c4nc(N5CCOCC5)cc5ncccc45)C3)C2)nc1 (mixture of isomers) [Example 1] | 6.08 | 7.09 |
| C[C@H]1CN(c2ncn[nH]2)CC[C@@H]1Oc1nc(N2CCOCC2)cc2ncccc12 (single isomer, unassigned) [Parent compound 158] | 5.00 | 6.99 |
| c1cnc(NCC2CCN(c3nc(N4CCOCC4)cc4ncccc34)CC2)nc1 [Example 2] | 6.13 | 7.41 |
| NC(=O)[C@H]1CC[C@@H](Oc2nc(N3CCOCC3)cc3ncccc23)CC1 [Example 3] | 6.44 | 8.05 |
| N#C[C@H]1CC[C@@H](Oc2nc(N3CCOCC3)cc3ncccc23)CC1 [Example 4] | 5.74 | 7.43 |
| Cc1noc([C@H]2CC[C@@H](Oc3nc(N4CCOCC4)cc4ncccc34)CC2)n1 [Example 5] | 5.86 | 7.68 |
| NC(=O)[C@H]1CC[C@@H](COc2nc(N3CCOCC3)cc3ncccc23)CC1 [Example 6] | 5.70 | 7.13 |
| c1cnc(NCCCCOc2nc(N3CCOCC3)cc3ncccc23)nc1 [Example 8] | 5.18 | 6.55 |
| c1cnc(NCC2CCN(c3nc(N4CCOCC4)cc4ncccc34)C2)nc1 (stereo not shown) [Example 11] | 5.46 | 7.30 |
| c1cnc(N[C@H]2[C@@H]3CN(c4nc(N5CCOCC5)cc5ncccc45)C[C@@H]32)nc1 [Example 12] | 5.59 | 7.15 |
| c1cnc(NC2CCC3CN(c4nc(N5CCOCC5)cc5ncccc45)CC32)nc1 (stereo not shown) [Example 13] | 5.55 | 7.15 |
| CN(C)S(=O)(=O)n1ccnc1C1CCN(c2nc(N3CCOCC3)cc3ncccc23)CC1 [Example 14] | 5.35 | 7.14 |
| OCCC1CCN(c2nc(N3CCOCC3)cc3ncccc23)CC1 [Example 15] | 5.67 | 6.97 |
| c1cnc(NC2CCN(c3nc(N4CCOCC4)cc4ncccc34)CC2)nc1 [Example 16] | 4.73 | 6.86 |
| c1cnc(N2CCC3CN(c4nc(N5CCOCC5)cc5ncccc45)CC32)nc1 (stereo not shown) [Example 17] | 5.35 | 6.83 |
| c1cnc(NC2CCCN(c3nc(N4CCOCC4)cc4ncccc34)CC2)nc1 (stereo not shown) [Example 18] | 5.33 | 6.83 |
| CC(C)(C)OC(=O)N1CCN(c2nc(N3CCOCC3)cc3ncccc23)CC1 [Example 19] | 5.18 | 6.80 |
| c1cnc(NC2CCCCN(c3nc(N4CCOCC4)cc4ncccc34)C2)nc1 (stereo not shown) [Example 20] | 5.05 | 6.80 |
| c1cnc(NCCC2CN(c3nc(N4CCOCC4)cc4ncccc34)C2)nc1 [Example 21] | 5.10 | 6.79 |

| SMILES | pIC50 [1] | pIC50 [2] |
| --- | --- | --- |
| c1cnc(N2CCC3(CCN(c4nc(N5CCOCC5)cc5ncccc45)C3)C2)nc1 (stereo not shown) [Example 22] | 5.81 | 6.70 |
| c1cnc(NCc2cnn(-c3nc(N4CCOCC4)cc4ncccc34)c2)nc1 [Example 24] | 5.03 | 6.67 |
| Brc1cnc2cc(N3CCOCC3)nc(O[C@H]3CC[C@@H](n4ccnc4)CC3)c2c1 [Example 54] | 6.74 | 8.52 |
| Cn1ncnc1[C@H]1CC[C@@H](Oc2nc(N3CCOCC3)cc3ncccc23)CC1 [Example 56] | 6.62 | 7.92 |
| NC(=O)[C@H]1CC[C@H](COc2nc(N3CCOCC3)cc3ncccc23)CC1 [Example 57] | 5.61 | 6.92 |
| c1cnc2cc(N3CCOCC3)nc(N[C@H]3CC[C@@H](c4nnc[nH]4)CC3)c2c1 [Example 58] | 5.80 | 7.57 |
| [2H]C1([2H])OC([2H])([2H])C([2H])([2H])N(c2cc3ncccc3c(O[C@H]3CC[C@@H](c4nc[nH]n4)CC3)n2)C1([2H])[2H] [Example 65] | 6.68 | 8.70 |
| C[C@@H]1CN(c2cc3ncccc3c(O[C@H]3CC[C@@H](c4nc[nH]n4)CC3)n2)CCO1 [Example 66] | 6.58 | 8.52 |
| C[C@H]1COCCN1c1cc2ncccc2c(O[C@H]2CC[C@@H](c3nc[nH]n3)CC2)n1 [Example 67] | 6.05 | 7.49 |
| C[C@@H]1COCCN1c1cc2ncccc2c(O[C@H]2CC[C@@H](c3nc[nH]n3)CC2)n1 [Example 69] | 5.30 | 6.58 |
| Cc1nnc([C@H]2CC[C@@H](Oc3nc(N4CCOCC4)cc4ncccc34)CC2)[nH]1 [Example 70] | 6.95 | 9.00 |
| c1cnc2cc(N3CCOCC3)nc(O[C@H]3CC[C@@H](c4nnc[nH]4)CC3)c2c1 [Example 71] | 7.21 | 8.70 |
| Cn1cnc([C@H]2CC[C@@H](Oc3nc(N4CCOCC4)cc4ncccc34)CC2)n1 [Example 72] | 6.66 | 7.96 |
| c1cnc2cc(N3CCOCC3)nc(OC[C@H]3CC[C@@H](c4ncn[nH]4)CC3)c2c1 [Example 73] | 5.76 | 7.26 |
| c1cnc2cc(N3CCOCC3)nc(O[C@H]3CC[C@@H](c4nnn[nH]4)CC3)c2c1 [Example 74] | 6.12 | 8.52 |
| c1cnc2cc(N3CCOCC3)nc(O[C@H]3CC[C@@H](c4ncc[nH]4)CC3)c2c1 [Example 75] | 7.24 | 8.30 |
| Fc1c[nH]c([C@H]2CC[C@@H](Oc3nc(N4CCOCC4)cc4ncccc34)CC2)n1 [Example 76] | 6.84 | 7.96 |
| c1cnc2cc(N3CCOCC3)nc(O[C@H]3CC[C@@H](n4ccnc4)CC3)c2c1 [Example 77] | 6.98 | 8.22 |
| Fc1cnn([C@H]2CC[C@@H](Oc3nc(N4CCOCC4)cc4ncccc34)CC2)c1 [Example 78] | 6.71 | 8.40 |

| SMILES | pIC50 [1] | pIC50 [2] |
| --- | --- | --- |
| c1cnc2cc(N3CCOCC3)nc(O[C@H]3CC[C@@H](n4ccnn4)CC3)c2c1 [Example 79] | 6.43 | 8.22 |
| c1cnc2cc(N3CCOCC3)nc(O[C@H]3CC[C@@H](n4cncn4)CC3)c2c1 [Example 80] | 6.62 | 8.15 |
| c1cnc2cc(N3CCOCC3)nc(O[C@H]3CC[C@@H](n4nccn4)CC3)c2c1 [Example 81] | 6.29 | 8.00 |
| CS(=O)(=O)[C@H]1CC[C@@H](Oc2nc(N3CCOCC3)cc3ncccc23)CC1 [Example 82] | 5.72 | 6.85 |
| CC(=O)N1CCN(c2nc(N3CCOCC3)cc3ncccc23)CC1 [Example 84] | 5.42 | 6.73 |
| c1cnc2cc(N3CCOCC3)nc(O[C@H]3C[C@@H](c4ncc[nH]4)C3)c2c1 [Example 87] | 5.94 | 7.29 |
| COc1cccnc1NCC1CCN(c2nc(N3CCOCC3)cc3ncccc23)CC1 [Example 137] |  | 6.34 |
| c1ccc(NCC2CCN(c3nc(N4CCOCC4)cc4ncccc34)CC2)cc1 [Example 138] |  | 6.30 |
| O=S(=O)(NCC1CCN(c2nc(N3CCOCC3)cc3ncccc23)CC1)c1ccc(F)cc1 [Example 142] |  | 6.09 |
| Nc1ccnc(NCC2CCN(c3nc(N4CCOCC4)cc4ncccc34)CC2)n1 [Parent compound 139] |  | 6.90 |
| CC(=O)NCC1CCN(c2nc(N3CCOCC3)cc3ncccc23)CC1 [Parent compound 140] |  | 6.59 |
| CS(=O)(=O)NCC1CCN(c2nc(N3CCOCC3)cc3ncccc23)CC1 [Parent compound 141] |  | 6.43 |
| CN(C)CC1CCN(c2nc(N3CCOCC3)cc3ncccc23)CC1 [Parent compound 145] |  | 5.46 |
| O=C(Nc1ncccn1)N1CCN(c2nc(N3CCOCC3)cc3ncccc23)CC1 [Parent compound 146] |  | 6.63 |
| NC(=O)N1CCC(Oc2nc(N3CCOCC3)cc3ncccc23)CC1 [Parent compound 147] |  | 6.47 |
| CN(C)C(=O)N1CC(COc2nc(N3CCOCC3)cc3ncccc23)C1 [Parent compound 149] |  | 6.61 |
| CC1CN(c2ncn[nH]2)CCC1Oc1nc(N2CCOCC2)cc2ncccc12 (stereo not shown) [Parent compound 159] |  | 6.94 |
| Oc1cnc2c(Cl)c(N3CCOCC3)nc(O[C@H]3CC[C@@H](n4ccnc4)CC3)c2c1 [Parent compound 172] |  | 6.62 |

Reference: patent publication US20230063457A1, “DNA-PK INHIBITING COMPOUNDS” (Provincial Health Services Authority, priority 2019, published 2023)
